{
  "source": "patent US20210403485A1",
  "about": "“PYRAZOLOPYRIMIDINE DERIVATIVE AS SELECTIVE TRK INHIBITOR” (SHANDONG LUYE PHARMACEUTICAL CO., LTD., priority 2018, published 2021)",
  "key": {"[1]": {"tested_on": "Ba/F3 ETV6-NTRK3-G623R cells", "assay": "Efficacy test in animals: subcutaneous xenograft, intragastric administration", "format": "in vivo, nude mice", "conditions": "for TGI (tumor growth inhibition rate): day of dissection; for Tumor inhibition rate (by tumor weight) / Tumor weight: end of the test", "protocol": "Cells in the logarithmic growth phase were collected and resuspended in serum-free medium to a cell concentration of 2-4×10^7 cells/mL. An equal volume of matrigel was added to the cell suspension to achieve a final cell concentration of 1-2×10^7 cells/mL. 0.2 mL of tumor cell suspension was subcutaneously inoculated at the scapula of each nude mouse with the inoculation amount of 2-4×10^6 cells/mouse to prepare the animal models."}, "[2]": {"assay": "Animal body weight and general observations, Ba/F3 ETV6-NTRK3-G623R tumor-bearing nude mice", "procedure": "The mice in groups were intragastrically administrated on the next day, and the animal body weight and the long and short diameters of the tumor were measured once every other day."}},
  "data": [
    {"smiles": "O=C1NC2(CC2)COc2ncc(F)cc2C2COCCN2c2ccn3ncc1c3n2", "note": "(single isomer, unassigned) [WX001B]", "values": [
      {"measurement": "Relative tumor proliferation rate T/C", "setting": "[1]; Day 3, 10 mg/kg bid", "value": 35.78, "unit": "%"},
      {"measurement": "Tumor volume", "setting": "[1]; Day 3, 10 mg/kg bid", "value": "216.15 ± 52.64", "unit": "mm^3"},
      {"measurement": "Relative tumor proliferation rate T/C", "setting": "[1]; Day 3, 20 mg/kg bid", "value": 32.65, "unit": "%"},
      {"measurement": "Tumor volume", "setting": "[1]; Day 3, 20 mg/kg bid", "value": "197.28 ± 52.49", "unit": "mm^3"},
      {"measurement": "Relative tumor proliferation rate T/C", "setting": "[1]; Day 5, 2.5 mg/kg bid", "value": 42.80, "unit": "%"},
      {"measurement": "Tumor volume", "setting": "[1]; Day 5, 2.5 mg/kg bid", "value": "507.81 ± 127.36", "unit": "mm^3"},
      {"measurement": "Relative tumor proliferation rate T/C", "setting": "[1]; Day 5, 5 mg/kg bid", "value": 32.50, "unit": "%"},
      {"measurement": "Tumor volume", "setting": "[1]; Day 5, 5 mg/kg bid", "value": "385.61 ± 63.66", "unit": "mm^3"},
      {"measurement": "Relative tumor proliferation rate T/C", "setting": "[1]; Day 5, 10 mg/kg bid", "value": 19.67, "unit": "%"},
      {"measurement": "Tumor volume", "setting": "[1]; Day 5, 10 mg/kg bid", "value": "233.42 ± 49.88", "unit": "mm^3"},
      {"measurement": "Relative tumor proliferation rate T/C", "setting": "[1]; Day 5, 20 mg/kg bid", "value": 13.62, "unit": "%"},
      {"measurement": "Tumor volume", "setting": "[1]; Day 5, 20 mg/kg bid", "value": "161.67 ± 45.52", "unit": "mm^3"},
      {"measurement": "Relative tumor proliferation rate T/C", "setting": "[1]; Day 7, 2.5 mg/kg bid", "value": 36.00, "unit": "%"},
      {"measurement": "Tumor volume", "setting": "[1]; Day 7, 2.5 mg/kg bid", "value": "689.34 ± 174.38", "unit": "mm^3"},
      {"measurement": "Relative tumor proliferation rate T/C", "setting": "[1]; Day 7, 5 mg/kg bid", "value": 29.86, "unit": "%"},
      {"measurement": "Tumor volume", "setting": "[1]; Day 7, 5 mg/kg bid", "value": "571.74 ± 105.62", "unit": "mm^3"},
      {"measurement": "Relative tumor proliferation rate T/C", "setting": "[1]; Day 7, 10 mg/kg bid", "value": 15.44, "unit": "%"},
      {"measurement": "Tumor volume", "setting": "[1]; Day 7, 10 mg/kg bid", "value": "295.60 ± 218.67", "unit": "mm^3"},
      {"measurement": "Relative tumor proliferation rate T/C", "setting": "[1]; Day 7, 20 mg/kg bid", "value": 9.61, "unit": "%"},
      {"measurement": "Tumor volume", "setting": "[1]; Day 7, 20 mg/kg bid", "value": "184.02 ± 76.71", "unit": "mm^3"},
      {"measurement": "Relative tumor proliferation rate T/C", "setting": "[1]; Day 9, 2.5 mg/kg bid", "value": 34.48, "unit": "%"},
      {"measurement": "Tumor volume", "setting": "[1]; Day 9, 2.5 mg/kg bid", "value": "862.41 ± 275.13", "unit": "mm^3"},
      {"measurement": "Relative tumor proliferation rate T/C", "setting": "[1]; Day 9, 5 mg/kg bid", "value": 24.33, "unit": "%"},
      {"measurement": "Tumor volume", "setting": "[1]; Day 9, 5 mg/kg bid", "value": "608.56 ± 193.58", "unit": "mm^3"},
      {"measurement": "Relative tumor proliferation rate T/C", "setting": "[1]; Day 9, 10 mg/kg bid", "value": 11.02, "unit": "%"},
      {"measurement": "Tumor volume", "setting": "[1]; Day 9, 10 mg/kg bid", "value": "275.49 ± 176.66", "unit": "mm^3"},
      {"measurement": "Relative tumor proliferation rate T/C", "setting": "[1]; Day 9, 20 mg/kg bid", "value": 6.67, "unit": "%"},
      {"measurement": "Tumor volume", "setting": "[1]; Day 9, 20 mg/kg bid", "value": "166.80 ± 119.15", "unit": "mm^3"},
      {"measurement": "Relative tumor proliferation rate T/C", "setting": "[1]; Day 11, 2.5 mg/kg bid", "value": 31.05, "unit": "%"},
      {"measurement": "Tumor volume", "setting": "[1]; Day 11, 2.5 mg/kg bid", "value": "1079.47 ± 236.62", "unit": "mm^3"},
      {"measurement": "Relative tumor proliferation rate T/C", "setting": "[1]; Day 11, 5 mg/kg bid", "value": 18.40, "unit": "%"},
      {"measurement": "Tumor volume", "setting": "[1]; Day 11, 5 mg/kg bid", "value": "639.67 ± 102.59", "unit": "mm^3"},
      {"measurement": "Relative tumor proliferation rate T/C", "setting": "[1]; Day 11, 10 mg/kg bid", "value": 8.91, "unit": "%"},
      {"measurement": "Tumor volume", "setting": "[1]; Day 11, 10 mg/kg bid", "value": "309.67 ± 199.23", "unit": "mm^3"},
      {"measurement": "Relative tumor proliferation rate T/C", "setting": "[1]; Day 11, 20 mg/kg bid", "value": 4.89, "unit": "%"},
      {"measurement": "Tumor volume", "setting": "[1]; Day 11, 20 mg/kg bid", "value": "169.93 ± 190.60", "unit": "mm^3"},
      {"measurement": "TGI (tumor growth inhibition rate)", "setting": "[1]; 2.5 mg/kg bid", "value": 68.95, "unit": "%"},
      {"measurement": "TGI (tumor growth inhibition rate)", "setting": "[1]; 5 mg/kg bid", "value": 81.60, "unit": "%"},
      {"measurement": "TGI (tumor growth inhibition rate)", "setting": "[1]; 10 mg/kg bid", "value": 91.09, "unit": "%"},
      {"measurement": "TGI (tumor growth inhibition rate)", "setting": "[1]; 20 mg/kg bid", "value": 95.11, "unit": "%"},
      {"measurement": "Tumor inhibition rate (by tumor weight)", "setting": "[1]; 2.5 mg/kg bid", "value": 68.72, "unit": "%"},
      {"measurement": "Tumor weight", "setting": "[1]; 2.5 mg/kg bid", "value": "0.54 ± 0.24", "unit": "g"},
      {"measurement": "Tumor weight", "setting": "[1]; 5 mg/kg bid", "value": "0.44 ± 0.13", "unit": "g"},
      {"measurement": "Tumor inhibition rate (by tumor weight)", "setting": "[1]; 5 mg/kg bid, 5 mg/kg", "value": 74.12, "unit": "%"},
      {"measurement": "Tumor inhibition rate (by tumor weight)", "setting": "[1]; 10 mg/kg bid", "value": 92.90, "unit": "%"},
      {"measurement": "Tumor weight", "setting": "[1]; 10 mg/kg bid", "value": "0.12 ± 0.11", "unit": "g"},
      {"measurement": "Tumor inhibition rate (by tumor weight)", "setting": "[1]; 20 mg/kg bid", "value": 95.75, "unit": "%"},
      {"measurement": "Tumor weight", "setting": "[1]; 20 mg/kg bid", "value": "0.07 ± 0.06", "unit": "g"},
      {"measurement": "Rate of change in body weight (%) of day 11 to day 0", "setting": "[2]; 2.5 mg/kg bid", "value": 13.8, "unit": "%"},
      {"measurement": "Rate of change in body weight (%) of day 11 to day 0", "setting": "[2]; 5 mg/kg bid", "value": 14.3, "unit": "%"},
      {"measurement": "Rate of change in body weight (%) of day 11 to day 0", "setting": "[2]; 10 mg/kg bid", "value": 15.6, "unit": "%"},
      {"measurement": "Rate of change in body weight (%) of day 11 to day 0", "setting": "[2]; 20 mg/kg bid", "value": 8.8, "unit": "%"},
      {"measurement": "Tolerance (body weight course)", "setting": "[2]; 2.5-20 mg/kg bid", "value": "good tolerance"},
      {"measurement": "Body weight", "setting": "[2]; Day 0, 2.5 mg/kg bid", "value": "23.6 ± 1.7", "unit": "g"},
      {"measurement": "Body weight", "setting": "[2]; Day 0, 5 mg/kg bid", "value": "24.4 ± 1.9", "unit": "g"},
      {"measurement": "Body weight", "setting": "[2]; Day 0, 10 mg/kg bid", "value": "23.6 ± 2.2", "unit": "g"},
      {"measurement": "Body weight", "setting": "[2]; Day 0, 20 mg/kg bid", "value": "24.1 ± 2.3", "unit": "g"},
      {"measurement": "Body weight", "setting": "[2]; Day 3, 2.5 mg/kg bid", "value": "24.6 ± 1.7", "unit": "g"},
      {"measurement": "Body weight", "setting": "[2]; Day 3, 5 mg/kg bid", "value": "25.7 ± 1.9", "unit": "g"},
      {"measurement": "Body weight", "setting": "[2]; Day 3, 10 mg/kg bid", "value": "24.9 ± 2.1", "unit": "g"},
      {"measurement": "Body weight", "setting": "[2]; Day 3, 20 mg/kg bid", "value": "25.9 ± 2.8", "unit": "g"},
      {"measurement": "Body weight", "setting": "[2]; Day 5, 2.5 mg/kg bid", "value": "25.5 ± 1.8", "unit": "g"},
      {"measurement": "Body weight", "setting": "[2]; Day 5, 5 mg/kg bid", "value": "26.5 ± 1.9", "unit": "g"},
      {"measurement": "Body weight", "setting": "[2]; Day 5, 10 mg/kg bid", "value": "26.3 ± 2.2", "unit": "g"},
      {"measurement": "Body weight", "setting": "[2]; Day 5, 20 mg/kg bid", "value": "26.9 ± 2.9", "unit": "g"},
      {"measurement": "Body weight", "setting": "[2]; Day 7, 2.5 mg/kg bid", "value": "26.1 ± 2.1", "unit": "g"},
      {"measurement": "Body weight", "setting": "[2]; Day 7, 5 mg/kg bid", "value": "27.1 ± 1.8", "unit": "g"},
      {"measurement": "Body weight", "setting": "[2]; Day 7, 10 mg/kg bid", "value": "26.7 ± 2.2", "unit": "g"},
      {"measurement": "Body weight", "setting": "[2]; Day 7, 20 mg/kg bid", "value": "26.6 ± 3.2", "unit": "g"},
      {"measurement": "Body weight", "setting": "[2]; Day 9, 2.5 mg/kg bid", "value": "26.5 ± 1.8", "unit": "g"},
      {"measurement": "Body weight", "setting": "[2]; Day 9, 5 mg/kg bid", "value": "27.9 ± 1.9", "unit": "g"},
      {"measurement": "Body weight", "setting": "[2]; Day 9, 10 mg/kg bid", "value": "26.8 ± 2.2", "unit": "g"},
      {"measurement": "Body weight", "setting": "[2]; Day 9, 20 mg/kg bid", "value": "26.4 ± 3.5", "unit": "g"},
      {"measurement": "Body weight", "setting": "[2]; Day 11, 2.5 mg/kg bid", "value": "26.8 ± 2.0", "unit": "g"},
      {"measurement": "Body weight", "setting": "[2]; Day 11, 5 mg/kg bid", "value": "27.9 ± 2.6", "unit": "g"},
      {"measurement": "Body weight", "setting": "[2]; Day 11, 10 mg/kg bid", "value": "27.3 ± 2.2", "unit": "g"},
      {"measurement": "Body weight", "setting": "[2]; Day 11, 20 mg/kg bid", "value": "26.3 ± 3.9", "unit": "g"}
    ]}
  ]
}
